Results from patent US20180098969A1, “HODGKIN LYMPHOMA THERAPY” (Purdue Pharmaceutical Products L.P., priority 2016, published 2018).

Assays:
Format in all cases: cell-based, human
L1236-R100 = assay: Viable cell count and IC50, bendamustine-resistant line
Procedure: (b) The bendamustine-resistant Hodgkin lymphoma cell line L1236-R100, non-resistant L1236 Hodgkin lymphoma cell line cultured in DMSO L1236/DMSO and L1236 […] Control cells were cultured in the same final concentration of DMSO. The number of viable cells was assessed at 24, 48 and 72 hours through a Countess™ automated cell counter (Invitrogen), each experiment being repeated three times and the results given being the mean of the three results ±SD.

L540 cell = assay: Apoptosis, annexin V-FITC and Hoechst double staining; details: 5 μM, 24 h and 48 h
Procedure: (§1) This assay was performed on 7 cell lines (HDLM2 was excluded due to the low number of available cells) at 24 h and 48 h following EDO-S101 treatment (5 μM, DMSO). Control cells were cultured in the same final concentration of DMSO. Only viable cells (using Hoechst staining) were focused on, and all necrotic cells were excluded. Apoptosis was determined using annexin V-FITC and Hoechst (33342) double staining according to the manufacturer's instructions (BD Biosciences). Cell-cycle fractions were determined by Hoechst nuclear staining. Briefly, cells were harvested, washed in PBS, incubated with annexin V-FITC and Hoechst solution for 30 minutes at room temperature. Data were collected using a FACSCalibur flow cytometer (BD Biosciences) and analyzed with FlowJo Version 7.5.5 obtainable from FlowJo, LLC. Results represent the mean value of 3 independent experiments.

[1] = test system: Hodgkin lymphoma cell lines; assay: as above; details: 5 μM, 24 h and 48 h, all cells
Procedure: as §1

For `Cn1c(CCCCCCC(=O)NO)nc2cc(N(CCCl)CCCl)ccc21` [EDO-S101], the “anti-proliferative activity compared with vorinostat” value (L1236-R100) was “greater than that of vorinostat”, the viable cells (L1236-R100; 48 hours after treatment with 50 μM) was “no viable cells being observed” and the sensitivity for apoptosis (L540 cell) was “higher sensitivity”. The sensitivity for apoptosis [1] was “high sensitivity”.
